Earlier results in patent US20060135540A1, “PPAR active compounds” (priority 2004, published 2006).

What was measured:
murine PPARα = molecular target: T1, murine PPARα (Mus musculus, UniProt P23204)
T1 sequence (P23204 1-468): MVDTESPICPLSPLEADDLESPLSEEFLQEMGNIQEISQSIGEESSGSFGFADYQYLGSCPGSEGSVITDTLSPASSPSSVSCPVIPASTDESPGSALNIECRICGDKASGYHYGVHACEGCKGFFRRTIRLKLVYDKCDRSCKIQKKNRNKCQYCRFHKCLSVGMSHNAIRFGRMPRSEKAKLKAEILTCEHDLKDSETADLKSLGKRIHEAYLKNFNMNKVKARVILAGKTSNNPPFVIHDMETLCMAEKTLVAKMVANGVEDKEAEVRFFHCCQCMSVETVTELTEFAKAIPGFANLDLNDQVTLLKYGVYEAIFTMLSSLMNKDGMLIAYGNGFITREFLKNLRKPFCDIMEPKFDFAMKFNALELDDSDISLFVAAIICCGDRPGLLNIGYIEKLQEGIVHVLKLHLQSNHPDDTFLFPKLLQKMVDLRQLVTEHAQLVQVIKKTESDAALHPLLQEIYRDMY

PPARδ = molecular target: T2, PPARδ (Homo sapiens, UniProt Q03181)
T2 sequence (Q03181 1-441): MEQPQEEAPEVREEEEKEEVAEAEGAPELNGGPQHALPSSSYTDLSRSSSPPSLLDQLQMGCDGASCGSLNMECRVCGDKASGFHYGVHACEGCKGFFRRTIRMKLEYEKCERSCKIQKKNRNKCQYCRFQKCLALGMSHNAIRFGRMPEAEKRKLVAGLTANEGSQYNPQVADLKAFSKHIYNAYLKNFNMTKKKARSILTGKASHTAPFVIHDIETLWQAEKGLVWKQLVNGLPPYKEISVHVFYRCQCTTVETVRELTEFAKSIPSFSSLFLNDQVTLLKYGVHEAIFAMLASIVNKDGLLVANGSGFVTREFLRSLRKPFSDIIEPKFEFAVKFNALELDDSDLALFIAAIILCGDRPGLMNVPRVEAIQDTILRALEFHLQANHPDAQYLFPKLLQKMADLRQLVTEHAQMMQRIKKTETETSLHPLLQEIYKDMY

[1] = patients, large prospective trial

| activity on murine PPARα (murine PPARα) | agonist selectivity for PPARδ over PPARγ (PPARδ) | SMILES | reduction in cardiovascular events or death [1] |
| --- | --- | --- | --- |
| inactive | approximately 30 fold | CCCc1c(OCCCOc2ccc(OCC(=O)O)cc2)ccc(C(C)=O)c1O [Compound L-165041] | – |
| – | – | Cc1ccc(C)c(OCCCC(C)(C)C(=O)O)c1 [gemfibrozil] | 22% |
